Measured values reported in patent publication US7193085B2, “Acid Red 82 in mixtures” (Lanxess Deutschland GmbH, priority 2002, dated 2007).

Assay: Solubility of the dye
Assay type: physicochemical

SMILES: Cc1ccc(Nc2ccc3c4c(cc(=O)n3C)-c3ccccc3C(=O)c24)c(S(=O)(=O)[O-])c1.[Na+] [Acid Red 80, C. I. Acid Red 80]
- solubility compared with Acid Red 82: less than that of Acid Red 82
